Calls of active or inactive are those of the source. The calls are words filed in the database; no cut-off is given here.
Experiments:
Mus musculus [1] = assay: In vivo inhibition of DGAT1 in C57BL/6 mouse model of acute lipid challenge assessed as reduction in chylomicron derived plasma triglyceride excursion at 3 to 10 mg/kg, po as corn oil bolus by Oral lipid tolerance test relative to control; type: functional, organism-based; settings: dose 3-10 mg/kg
Mus musculus [2] = assay: In vivo inhibition of DGAT1 in C57BL/6 mouse model of acute lipid challenge assessed as reduction in AUC plasma triglyceride level at 3 to 10 mg/kg, po as corn oil bolus by Oral lipid tolerance test relative to control; type: functional, organism-based; settings: dose 3-10 mg/kg
[3] = biological target: T1, Diacylglycerol O-acyltransferase 1 (Homo sapiens, UniProt O75907); assay: Inhibition of recombinant human DGAT1 expressed in Sf9 cell membrane assessed as inhibition of triglyceride synthesis incubated for 1 hrs by LC-MS-based mass spectrophotometric analysis; type: cell membranes
T1 sequence (O75907 whole entry): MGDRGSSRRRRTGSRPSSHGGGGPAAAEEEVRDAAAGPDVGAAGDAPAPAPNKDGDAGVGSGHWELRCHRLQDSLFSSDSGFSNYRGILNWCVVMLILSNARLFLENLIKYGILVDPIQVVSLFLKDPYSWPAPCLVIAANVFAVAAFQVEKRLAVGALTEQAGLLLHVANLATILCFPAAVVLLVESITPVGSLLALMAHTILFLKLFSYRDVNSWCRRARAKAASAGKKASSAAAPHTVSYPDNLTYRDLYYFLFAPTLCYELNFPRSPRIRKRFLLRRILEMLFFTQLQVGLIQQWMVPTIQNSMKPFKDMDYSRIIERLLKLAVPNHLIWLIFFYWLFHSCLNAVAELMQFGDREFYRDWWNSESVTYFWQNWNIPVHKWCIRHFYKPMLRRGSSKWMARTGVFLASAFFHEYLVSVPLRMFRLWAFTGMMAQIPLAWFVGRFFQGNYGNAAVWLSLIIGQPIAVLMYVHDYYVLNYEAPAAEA

[4] = biological target: T1, Diacylglycerol O-acyltransferase 1; assay: Inhibition of human DGAT1 in serum starved HEK293 cells assessed as inhibition of triglyceride synthesis incubated for 20 mins followed by 13C-addition of 13C-oleic acid pre-complexed with BSA for 120 mins by LC-MS-based mass spectrophotometric analysis; type: cell-based
[5] = Drug distribution in C57BL/6 mouse liver 10 mg/kg, po and measured at 8 hrs post dose by LC-MS/MS analysis; type: ADME, organism-based; settings: read-out: Ct
[6] = Drug distribution in C57BL/6 mouse liver 10 mg/kg, po and measured at 1 hrs post dose by LC-MS/MS analysis; type: ADME, organism-based; settings: read-out: Ct
[7] = Drug distribution in C57BL/6 mouse liver 10 mg/kg, po and measured at 2 hrs post dose by LC-MS/MS analysis; type: ADME, organism-based; settings: read-out: Ct
hERG (KCNH2) = hERG (KCNH2) (Homo sapiens, UniProt Q12809); assay: Displacement of [3H]astemizole from human ERG expressed in HEK293 cell membrane at 10 uM for 2 hrs by Radiometric displacement assay; type: toxicity; settings: HEK293 cell membranes that express hERG, probe [3H]astemizole
[8] = Apparent permeability across apical to basolateral side in MDCK cells at 2.5 uM for 90 mins; type: ADME, cell-based, Canis lupus familiaris; settings: dog
[9] = Clearance in C57BL/6 mouse at 3 mg/kg, iv or 10 mg/kg, po and measured up to 24 hrs by LC-MS/MS analysis; type: ADME, organism-based; settings: in vivo
[10] = Plasma protein binding in mouse; type: ADME, cell-free; settings: read-out: PPB (converted)
[11] = Metabolic stability in human liver microsomes assessed as parent compound remaining at 1 uM and measured at 30 mins by LC-MS/MS analysis; type: ADME, Microsome; settings: read-out: Stability
[12] = Half life in C57BL/6 mouse at 3 mg/kg, iv or 10 mg/kg, po and measured up to 24 hrs by LC-MS/MS analysis; type: ADME, organism-based; settings: in vivo
[13] = Metabolic stability in rat liver microsomes assessed as parent compound remaining at 1 uM and measured at 30 mins by LC-MS/MS analysis; type: ADME, Microsome; settings: read-out: Stability
[14] = Drug distribution in C57BL/6 mouse plasma 10 mg/kg, po and measured at 2 hrs post dose by LC-MS/MS analysis; type: ADME, organism-based
[15] = Volume of distribution at steady state in C57BL/6 mouse at 3 mg/kg, iv or 10 mg/kg, po and measured up to 24 hrs by LC-MS/MS analysis; type: ADME, organism-based; settings: in vivo, read-out: Vdss
[16] = Drug distribution in C57BL/6 mouse plasma 10 mg/kg, po and measured at 8 hrs post dose by LC-MS/MS analysis; type: ADME, organism-based
[17] = AUC in Wistar rat at 3 mg/kg, iv or 10 mg/kg, po and measured up to 24 hrs by LC-MS/MS analysis; type: ADME, organism-based; design: dose 3 mg/kg, time < 24 hrs, route iv; settings: in vivo
[18] = AUC in C57BL/6 mouse at 3 mg/kg, iv or 10 mg/kg, po and measured up to 24 hrs by LC-MS/MS analysis; type: ADME, organism-based; design: time < 24 hrs, dose 3 mg/kg, route iv; settings: in vivo
[19] = Drug distribution in C57BL/6 mouse adipose tissue 10 mg/kg, po and measured at 1 hrs post dose by LC-MS/MS analysis; type: ADME, organism-based; settings: read-out: Ct
[20] = Tmax in C57BL/6 mouse at 3 mg/kg, iv or 10 mg/kg, po and measured up to 24 hrs by LC-MS/MS analysis; type: ADME, organism-based; settings: in vivo
[21] = Drug distribution in C57BL/6 mouse adipose tissue 10 mg/kg, po and measured at 8 hrs post dose by LC-MS/MS analysis; type: ADME, organism-based; settings: read-out: Ct
[22] = Cmax in C57BL/6 mouse at 3 mg/kg, iv or 10 mg/kg, po and measured up to 24 hrs by LC-MS/MS analysis; type: ADME, organism-based; design: dose 3 mg/kg, time < 24 hrs, route iv; settings: in vivo
[23] = Drug distribution in C57BL/6 mouse adipose tissue 10 mg/kg, po and measured at 2 hrs post dose by LC-MS/MS analysis; type: ADME, organism-based; settings: read-out: Ct
[24] = Drug distribution in C57BL/6 mouse skeletal muscle 10 mg/kg, po and measured at 2 hrs post dose by LC-MS/MS analysis; type: ADME, organism-based, Skeletal muscle tissue; settings: read-out: Ct
[25] = Cmax in Wistar rat at 3 mg/kg, iv or 10 mg/kg, po and measured up to 24 hrs by LC-MS/MS analysis; type: ADME, organism-based; design: dose 3 mg/kg, time < 24 hrs, route iv; settings: in vivo
[26] = Tmax in Wistar rat at 3 mg/kg, iv or 10 mg/kg, po and measured up to 24 hrs by LC-MS/MS analysis; type: ADME, organism-based; settings: in vivo
[27] = Metabolic stability in mouse liver microsomes assessed as parent compound remaining at 1 uM and measured at 30 mins by LC-MS/MS analysis; type: ADME, Microsome; settings: read-out: Stability
[28] = Drug distribution in C57BL/6 mouse skeletal muscle 10 mg/kg, po and measured at 1 hrs post dose by LC-MS/MS analysis; type: ADME, organism-based, Skeletal muscle tissue; settings: read-out: Ct
[29] = Volume of distribution at steady state in Wistar rat at 3 mg/kg, iv or 10 mg/kg, po and measured up to 24 hrs by LC-MS/MS analysis; type: ADME, organism-based; settings: in vivo, read-out: Vdss
[30] = Clearance in Wistar rat at 3 mg/kg, iv or 10 mg/kg, po and measured up to 24 hrs by LC-MS/MS analysis; type: ADME, organism-based; settings: in vivo
[31] = Drug distribution in C57BL/6 mouse skeletal muscle 10 mg/kg, po and measured at 8 hrs post dose by LC-MS/MS analysis; type: ADME, organism-based, Skeletal muscle tissue; settings: read-out: Ct
[32] = Plasma protein binding in rat; type: ADME, cell-free; settings: read-out: PPB
[33] = Drug distribution in C57BL/6 mouse brain 10 mg/kg, po and measured at 2 hrs post dose by LC-MS/MS analysis; type: ADME, organism-based; settings: read-out: Ct
[34] = Oral bioavailability in C57BL/6 mouse 10 mg/kg or 3 mg/kg, iv and measured up to 24 hrs by LC-MS/MS analysis; type: ADME, organism-based; settings: in vivo
[35] = Oral bioavailability in Wistar rat at 10 mg/kg or 3 mg/kg, iv and measured up to 24 hrs by LC-MS/MS analysis; type: ADME, organism-based; settings: in vivo
[36] = Half life in Wistar rat at 3 mg/kg, iv or 10 mg/kg, po and measured up to 24 hrs by LC-MS/MS analysis; type: ADME, organism-based; settings: in vivo
[37] = Drug distribution in C57BL/6 mouse plasma 10 mg/kg, po and measured at 1 hrs post dose by LC-MS/MS analysis; type: ADME, organism-based
[38] = Drug distribution in C57BL/6 mouse brain 10 mg/kg, po and measured at 1 hrs post dose by LC-MS/MS analysis; type: ADME, organism-based; settings: read-out: Ct

Chain of hERG (KCNH2) (Q12809 whole entry): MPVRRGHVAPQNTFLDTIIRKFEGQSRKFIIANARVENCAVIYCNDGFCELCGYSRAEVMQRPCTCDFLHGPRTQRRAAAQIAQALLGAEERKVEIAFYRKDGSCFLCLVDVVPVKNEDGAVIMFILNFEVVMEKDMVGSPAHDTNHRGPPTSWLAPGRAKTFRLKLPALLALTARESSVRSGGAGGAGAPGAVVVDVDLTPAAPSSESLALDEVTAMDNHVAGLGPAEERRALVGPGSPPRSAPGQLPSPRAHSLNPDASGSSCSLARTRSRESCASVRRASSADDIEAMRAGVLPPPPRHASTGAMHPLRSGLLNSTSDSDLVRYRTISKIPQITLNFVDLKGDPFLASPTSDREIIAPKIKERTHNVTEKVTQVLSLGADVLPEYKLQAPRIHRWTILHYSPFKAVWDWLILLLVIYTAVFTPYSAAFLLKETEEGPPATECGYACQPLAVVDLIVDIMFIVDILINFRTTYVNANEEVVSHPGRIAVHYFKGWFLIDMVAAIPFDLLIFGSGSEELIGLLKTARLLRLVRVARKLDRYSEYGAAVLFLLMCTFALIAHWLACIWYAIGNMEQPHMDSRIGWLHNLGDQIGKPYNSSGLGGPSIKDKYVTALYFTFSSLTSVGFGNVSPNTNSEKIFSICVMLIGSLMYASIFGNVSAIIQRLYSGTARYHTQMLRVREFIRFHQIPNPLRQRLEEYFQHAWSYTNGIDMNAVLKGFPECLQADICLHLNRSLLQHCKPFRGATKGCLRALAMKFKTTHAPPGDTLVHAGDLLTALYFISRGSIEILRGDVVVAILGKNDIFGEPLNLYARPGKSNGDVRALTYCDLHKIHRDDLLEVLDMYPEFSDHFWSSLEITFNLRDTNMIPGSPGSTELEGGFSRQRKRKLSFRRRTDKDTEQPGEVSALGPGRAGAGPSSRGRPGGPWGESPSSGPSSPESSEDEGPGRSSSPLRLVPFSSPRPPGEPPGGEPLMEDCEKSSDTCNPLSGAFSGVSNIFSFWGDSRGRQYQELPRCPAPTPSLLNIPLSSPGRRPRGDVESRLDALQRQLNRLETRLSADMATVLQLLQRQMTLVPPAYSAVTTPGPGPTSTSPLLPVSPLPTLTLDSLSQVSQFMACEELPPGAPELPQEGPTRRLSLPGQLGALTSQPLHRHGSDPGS

## O=C(O)CC1CCC2(CC1)CCN(c1ccc(NC(=O)c3nnc(Nc4ccc(F)c(F)c4)o3)cn1)CC2 [listing 1 of 2 here]
Mus musculus [1]
  inhibition: Active
Mus musculus [2]
  inhibition: Active

## O=C(O)CC1CCC2(CC1)CCC(c1ccc(NC(=O)c3nnc(Nc4ccc(F)c(F)c4)o3)cc1)CC2 (stereo in doubt; 8a)
[3]
  IC50: 64 nM
[4]
  IC50: 24 nM

## O=C(Nc1ccc(N2CCC3(CC2)CC(C(=O)O)C3)nc1)c1nnc(Nc2ccc(F)c(F)c2)o1
Mus musculus [1]
  inhibition: Active
Mus musculus [2]
  inhibition: Active

## O=C(O)CC1CCC2(CC1)CCN(c1ccc(NC(=O)c3nnc(Nc4ccc(F)c(F)c4)o3)cn1)CC2 [listing 2 of 2 here]
[5]
  concentration at 8 h: 22.2 µM
[6]
  concentration at 1 h: 39.2 µM
[7]
  concentration at 2 h: 54.9 µM
hERG (KCNH2)
  inhibition at 2 h, 10 µM: 10%
[8]
  Papp A→B at 1.5 h, 2.5 µM: 5.3 ×10⁻⁶ cm/s
[9]
  clearance: 60 mL/min/kg
[10]
  fraction unbound: 0.01
[11]
  remaining at 0.5 h, 1 µM: 100%
[12]
  half-life: 342 min
[13]
  remaining at 0.5 h, 1 µM: 84%
[14]
  concentration at 2 h: 1460 nM
[15]
  Vd: 13 L/kg
[16]
  concentration at 8 h: 60 nM
[17]
  AUC at 24 h: 30 µM·h
[18]
  AUC at 24 h: 1.6 µM·h
[19]
  concentration at 1 h: 160 nM
[20]
  Tmax: 15 min
[21]
  concentration at 8 h: 10 nM
[22]
  Cmax: 1000 nM
[23]
  concentration at 2 h: 150 nM
[24]
  concentration at 2 h: 50 nM
[25]
  Cmax: 9.2 µM
[26]
  Tmax: 1.4 h
[27]
  remaining at 0.5 h, 1 µM: 78%
[28]
  concentration at 1 h: 100 nM
[29]
  Vd: 0.6 L/kg
[30]
  clearance: 3.3 mL/min/kg
[31]
  concentration at 8 h: 10 nM
[32]
  fraction unbound: 0.01
[33]
  concentration at 2 h: 10 nM
[34]
  bioavailability: 41%
[35]
  bioavailability: 38%
[36]
  half-life: 186 min
[37]
  concentration at 1 h: 1870 nM
[38]
  concentration at 1 h: 10 nM

— ChEMBL document CHEMBL5143597, “Design and synthesis of novel spirocyclic carboxylic acids as potent and orally bioavailable DGAT1 inhibitors and their biological evaluation” (Bioorg Med Chem Lett, 2022)
